Experimental data as given in patent US20090215774A1, “USES OF INDANE COMPOUNDS” (H. LUNDBECK A/S, priority 2008, published 2009).
Read-outs that look alike come from different tables or passages of the source.

Legend:
[1] = target: T1, 5-HTT Serotonin Transporter (Rattus norvegicus, UniProt P31652); assay: Measurements of [3H]-5-HT uptake into rat cortical synaptosomes; type: biochemical
T1 construct: Whole brains from male Wistar rats (125-225 g), excluding cerebellum, are homogenized; from tissue; host or cells: rat whole brain excluding cerebellum, synaptosomal (P2) pellet
T1 sequence (P31652 whole entry): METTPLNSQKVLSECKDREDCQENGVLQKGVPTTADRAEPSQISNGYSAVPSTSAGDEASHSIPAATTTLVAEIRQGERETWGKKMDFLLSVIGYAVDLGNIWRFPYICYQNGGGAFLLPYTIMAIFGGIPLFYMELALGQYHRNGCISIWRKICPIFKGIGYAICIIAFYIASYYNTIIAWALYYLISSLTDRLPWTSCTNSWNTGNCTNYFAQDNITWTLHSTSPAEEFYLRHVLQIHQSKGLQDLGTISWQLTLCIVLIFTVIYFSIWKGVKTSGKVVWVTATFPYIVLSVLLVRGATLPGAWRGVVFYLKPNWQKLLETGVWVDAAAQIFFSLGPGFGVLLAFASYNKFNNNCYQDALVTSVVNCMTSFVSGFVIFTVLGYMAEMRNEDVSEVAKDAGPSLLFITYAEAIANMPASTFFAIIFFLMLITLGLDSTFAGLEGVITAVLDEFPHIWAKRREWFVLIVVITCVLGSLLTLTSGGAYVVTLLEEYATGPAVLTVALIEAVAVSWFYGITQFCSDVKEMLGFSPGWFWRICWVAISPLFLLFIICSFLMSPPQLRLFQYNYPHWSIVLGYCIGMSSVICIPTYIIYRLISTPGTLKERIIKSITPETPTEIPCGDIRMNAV
Method: Measurements of [^3H]-5-HT Uptake Into Rat Cortical Synaptosomes
The homogenate is centrifuged at 1000×g for 10 rain at 4° C. The pellet is discarded and the supernatant is centrifuged at 40.000×g for 20 min. The final pellet is homogenized in assay buffer (0.5 mg original tissue/well). Test compounds (or buffer) and 10 nM [^3H]-5-HT are added to 96 well plates. […] The incubation is started by adding tissue to a final assay volume of 0.2 mL. After 15 min incubation with radioligand at 37° C., samples are filtered directly on Unifilter GF/C glass fiber filters (soaked for 30 min in 0.1% polyethylenimine) under vacuum and immediately washed with 1×0.2 ml assay buffer. Non-specific uptake is determined using citalopram (10 μM final concentration). Citalopram is included as reference in all experiments as dose-response curve.

DAT Dopamine Transporter = target: T2, DAT Dopamine Transporter (Rattus norvegicus, UniProt P23977); assay: Measurements of [3H]dopamine uptake into rat cortical synaptosomes; type: biochemical
T2 construct: male wistar rats (125-250 g) are sacrificed by decapitation and striatum quickly dissected out; from tissue; host or cells: rat striatum, P2 fraction
T2 sequence (P23977 whole entry): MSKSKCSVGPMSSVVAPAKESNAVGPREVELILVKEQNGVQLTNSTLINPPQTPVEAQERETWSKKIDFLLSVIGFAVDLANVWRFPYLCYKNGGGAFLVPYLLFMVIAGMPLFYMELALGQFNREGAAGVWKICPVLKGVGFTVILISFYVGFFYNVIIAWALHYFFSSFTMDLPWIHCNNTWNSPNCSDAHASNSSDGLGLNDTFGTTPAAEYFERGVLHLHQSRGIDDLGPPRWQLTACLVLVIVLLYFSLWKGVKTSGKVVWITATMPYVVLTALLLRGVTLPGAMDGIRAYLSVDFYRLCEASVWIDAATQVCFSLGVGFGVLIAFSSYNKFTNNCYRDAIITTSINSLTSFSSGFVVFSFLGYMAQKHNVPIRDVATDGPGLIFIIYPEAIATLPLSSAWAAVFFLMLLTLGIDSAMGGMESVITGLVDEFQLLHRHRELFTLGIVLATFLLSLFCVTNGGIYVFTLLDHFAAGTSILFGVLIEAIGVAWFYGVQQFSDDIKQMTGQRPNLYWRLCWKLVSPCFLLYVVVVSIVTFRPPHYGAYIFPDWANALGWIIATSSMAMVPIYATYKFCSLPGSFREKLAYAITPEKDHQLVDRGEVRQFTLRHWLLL
Method: Measurements of [^3H]Dopamine Uptake Into Rat Cortical Synaptosomes
The tissue is gently homogenised (glass teflon homogeniser) and the P2 fraction is obtained by centrifugation (1000 g, 10 minutes and 40000 g, 20 minutes, 4° C.) and suspended in 560 volumes of a modified Krebs-Ringer-phosphate buffer, pH 7.4.
Tissue 0.25 mg/well (140 μl) (original tissue) is mixed with test suspension. […] Final volume is 0.2 mL. The incubation is terminated by filtering the samples under vacuum through Whatman GF/C filters with a wash of 1×0.2 ml buffer. The filters are dried and appropriate scintillation fluid (Optiphase Supermix) is added. After storage for 2 hours in the dark the content of radioactivity is determined by liquid scintillation counting. Uptake is obtained by subtracting the non-specific binding and passive transport measured in the presence of 100 μM of benztropin. For determination of the inhibition of uptake ten concentrations of drugs covering 6 decades are used.
^3H-DA=3,4-(ring-2,5,6-^3H)dopamine hydrochloride from New England Nuclear, specific activity 30-50 Ci/mmol.

[2] = target: NAT Noradrenergic Transporter (Rattus norvegicus, UniProt Q9WTR4); assay: Measurements of [3H]noradrenaline uptake into rat cortical synaptosomes; type: biochemical
NAT Noradrenergic Transporter, sequence (Q9WTR4 6-550 limits assumed): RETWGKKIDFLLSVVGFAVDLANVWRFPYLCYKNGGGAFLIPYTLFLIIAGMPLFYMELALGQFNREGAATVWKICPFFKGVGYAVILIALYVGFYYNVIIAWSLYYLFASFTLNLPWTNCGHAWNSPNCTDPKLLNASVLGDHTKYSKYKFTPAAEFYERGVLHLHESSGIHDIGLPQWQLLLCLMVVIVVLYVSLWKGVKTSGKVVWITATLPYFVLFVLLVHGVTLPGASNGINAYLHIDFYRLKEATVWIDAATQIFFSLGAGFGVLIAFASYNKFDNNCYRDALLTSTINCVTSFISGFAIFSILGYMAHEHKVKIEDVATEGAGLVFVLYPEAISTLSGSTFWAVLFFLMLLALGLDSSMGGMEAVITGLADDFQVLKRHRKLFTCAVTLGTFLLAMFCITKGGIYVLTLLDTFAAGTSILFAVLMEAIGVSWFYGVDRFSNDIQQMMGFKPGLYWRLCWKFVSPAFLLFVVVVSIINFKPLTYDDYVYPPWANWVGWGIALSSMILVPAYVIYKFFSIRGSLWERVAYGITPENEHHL
Method: Measurements of [^3H]Noradrenaline Uptake Into Rat Cortical Synaptosomes
The homogenate is centrifuged at 1000×g for 10 min at 4° C. The pellet is discarded and the supernatant is centrifuged at 40.000×g for 20 min. […] Pellet is suspended in 140 volumes of assaybuffer. Tissue is mixed with test compounds and after 10 min pre-incubation, 10 nM [^3H]-noradrenaline is added to a final volume of 0.2 ml and the mixture is incubated for 15 min at 37° C. After 15 min incubation, samples are filtered directly on Unifilter GF/C glass fiber filters (soaked for 30 min in 0.1% polyethylenimine) under vacuum and immediately washed with 1×0.2 mL assay buffer. Non-specific uptake is determined using talsupram (10 μM final concentration). Duloxetine is included as reference in all experiments as dose-response curve.

[3] = 24 weeks' treatment, patients, cited from earlier work

## CN[C@@H]1C[C@@H](c2c[nH]c3cc(OC)ccc23)c2ccccc21 [Formula X]
[1]
  IC50: 0.1 to 200 nM
DAT Dopamine Transporter
  IC50: 0.1 to 200 nM
[2]
  IC50: 0.1 to 200 nM

## CN[C@@H]1C[C@@H](c2c[nH]c3ccccc23)c2ccccc21 [Formula IX]
[1]
  IC50: 0.1 to 200 nM
DAT Dopamine Transporter
  IC50: 0.1 to 200 nM
[2]
  IC50: 0.1 to 200 nM

## CCOC[C@@H]1[C@@H](c2ccc(Cl)c(Cl)c2)C[C@@H]2CC[C@H]1N2C [Tesofensine]
[3]; 0.25 mg
  average weight loss: 6.5%
[3]; 0.5 mg
  average weight loss: 11.2%
[3]; 1 mg
  average weight loss: 12.6%

## CN[C@@H]1C[C@@H](c2c[nH]c3ccc(Cl)cc23)c2ccccc21 [Formula VIII]
[1]
  IC50: 0.1 to 200 nM
DAT Dopamine Transporter
  IC50: 0.1 to 200 nM
[2]
  IC50: 0.1 to 200 nM

## CN[C@H]1C[C@@H](c2c[nH]c3c(F)cccc23)c2ccccc21 [Formula VII]
[1]
  IC50: 0.1 to 200 nM
DAT Dopamine Transporter
  IC50: 0.1 to 200 nM
[2]
  IC50: 0.1 to 200 nM

## CN[C@@H]1C[C@H](c2c[nH]c3c(F)cccc23)c2ccccc21 [Formula VI]
[1]
  IC50: 0.1 to 200 nM
DAT Dopamine Transporter
  IC50: 0.1 to 200 nM
[2]
  IC50: 0.1 to 200 nM
